Test results: patent US11000033B2, “Ketone or oxime compound, and herbicide” (NISSAN CHEMICAL CORPORATION, priority 2014, dated 2021)

Key:
Type in all cases: in vivo
[1] = tested on: Avena fatua; assay: Test Example 5: herbicidal effect by foliage application, plastic box (symbol I); conditions: 320 g/ha, 3 weeks after application
Summary of the method: (§1)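 Herbicide, formulated as an emulsion and diluted in water, is sprayed onto the aerial parts of 14-day seedlings. These were grown at 25° C. to 30° C. in sterilized diluvial soil; effects are graded after 3 weeks.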

[2] = tested on: beet; assay: Test Example 5: effect on crop by foliage application, plastic box (symbol f); conditions: 320 g/ha, 3 weeks after application
Summary of the method: (§2)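 A greenhouse held between 25° C. and 30° C. was used to grow plants sown spot-wise, beneath ~1.5 cm of soil, in boxes of sterilized diluvial soil.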

[3] = tested on: Veronica persica; assay: Test Example 4: herbicidal effect by soil treatment (symbol R); conditions: application herbicide amount 320 g/ha
Summary of the method: (§3)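 Seeds were sown in sterilized diluvial soil, covered with about 1.5 cm of soil, and the soil surface was sprayed with a water-diluted emulsion of the compound at a predetermined rate. Plants grew in a greenhouse at 25° C. to 30° C.; effects were scored visually 3 weeks after application.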

[4] = tested on: rice plant; assay: Test Example 5: effect on crop by foliage application, plastic box (symbol b); conditions: 320 g/ha, 3 weeks after application
Summary of the method: as §2

[5] = tested on: Apera spica-venti; assay: Test Example 4: herbicidal effect by soil treatment (symbol L); conditions: application herbicide amount 320 g/ha
Summary of the method: as §3

[6] = tested on: Amaranthus retroflexus; assay: Test Example 4: herbicidal effect by soil treatment (symbol N); conditions: application herbicide amount 320 g/ha
Summary of the method: as §3

[7] = tested on: Stellaria media; assay: Test Example 4: herbicidal effect by soil treatment (symbol P); conditions: application herbicide amount 320 g/ha
Summary of the method: as §3

[8] = tested on: Monochoria vaginalis; assay: Test Example 1: herbicidal activity, application before weed generation in submerged conditions (symbol C); conditions: application herbicide amount 320 g/ha
Summary of the method: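 In a flooded pot test with alluvial soil, the emulsion-formulated compound was diluted with water to a predetermined amount and applied to the floodwater immediately on the sowing day. Pots were held in a greenhouse at 25–30 °C for 3 weeks before each weed was rated.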

[9] = tested on: Setaria viridis; assay: Test Example 5: herbicidal effect by foliage application, plastic box (symbol G); conditions: 320 g/ha, 3 weeks after application
Summary of the method: as §1

[10] = tested on: Galium spurium; assay: Test Example 4: herbicidal effect by soil treatment (symbol Q); conditions: application herbicide amount 320 g/ha
Summary of the method: as §3

[11] = tested on: Setaria viridis; assay: Test Example 4: herbicidal effect by soil treatment (symbol G); conditions: application herbicide amount 320 g/ha
Summary of the method: as §3

[12] = tested on: Echinochloa oryzacola Vasing.; assay: Test Example 2: herbicidal activity, application during weed generation in submerged conditions (symbol A); conditions: Table 23; application herbicide amount 320 g/ha; grade 0-5 by criteria of Test Example 1
Summary of the method: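 Each pot contained alluvial soil under 4 cm of water with seeds of all three weeds sown together. Following growth at 25° C. to 30° C. to the one- to two-leaf stage, the floodwater received diluted emulsion at a predetermined amount; visual assessment followed at 3 weeks.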

[13] = tested on: Chenopodium album; assay: Test Example 5: herbicidal effect by foliage application, plastic box (symbol O); conditions: 320 g/ha, 3 weeks after application
Summary of the method: as §1

| Structure (SMILES) | I: Avena fatua, herbicidal effect grade [1] | f: beet, effect on crop grade [2] | R (Veronica persica) herbicidal effect grade [3] | b: directly sowed rice plant, effect on crop grade [4] | L (Apera spica-venti) herbicidal effect grade [5] | N (Amaranthus retroflexus) herbicidal effect grade [6] | P (Stellaria media) herbicidal effect grade [7] | G: Setaria viridis, herbicidal effect grade [9] | Q (Galium spurium) herbicidal effect grade [10] | G (Setaria viridis) herbicidal effect grade [11] | Herbicidal effect grade, A: Echinochloa oryzacola Vasing. [12] | other results |
| --- | --- | --- | --- | --- | --- | --- | --- | --- | --- | --- | --- | --- |
| CCCCCCCCC(=O)OC1=C(c2c(C)cc(C)cc2C)C(=O)C(CC(C)=NOC)C1 (centres unmarked) [1-033] | 5 (Herbicidal ratio of 90% or more (almost completely withered)) | 3 (Herbicidal ratio of 40% or higher and lower than 70%) | 1 (Herbicidal ratio of 5% or higher and lower than 20%) | 5 (Herbicidal ratio of 90% or more (almost completely withered)) | 5 (Herbicidal ratio of 90% or more (almost completely withered)) | 5 (Herbicidal ratio of 90% or more (almost completely withered)) | 0 (Herbicidal ratio of 5% or lower (almost no effect)) | 5 (Herbicidal ratio of 90% or more (almost completely withered)) | 3 (Herbicidal ratio of 40% or higher and lower than 70%) | 5 (Herbicidal ratio of 90% or more (almost completely withered)) | 5 (Herbicidal ratio of 90% or more (almost completely withered)) | Herbicidal effect grade, C: Monochoria vaginalis [8]: 1 (Herbicidal ratio of 5% or higher and lower than 20%) |
| CON=C(C)CC1CC(OC(=O)COc2ccc(C)cc2)=C(c2c(C)cc(C)cc2C)C1=O (centres unmarked) [1-072] | 5 (Herbicidal ratio of 90% or more (almost completely withered)) | 1 (Herbicidal ratio of 5% or higher and lower than 20%) | 0 (Herbicidal ratio of 5% or lower (almost no effect)) | 5 (Herbicidal ratio of 90% or more (almost completely withered)) | 5 (Herbicidal ratio of 90% or more (almost completely withered)) | 5 (Herbicidal ratio of 90% or more (almost completely withered)) | 0 (Herbicidal ratio of 5% or lower (almost no effect)) | 5 (Herbicidal ratio of 90% or more (almost completely withered)) | 0 (Herbicidal ratio of 5% or lower (almost no effect)) | 5 (Herbicidal ratio of 90% or more (almost completely withered)) | 5 (Herbicidal ratio of 90% or more (almost completely withered)) | O: Chenopodium album, herbicidal effect grade [13]: 1 (Herbicidal ratio of 5% or higher and lower than 20%) |
| CC(=O)CC1CC(O)=C(c2c(C)cc(Oc3ccccc3)cc2C)C1=O (centres unmarked) [7-014] | – | – | – | – | – | – | – | – | – | – | – | I: Avena fatua, herbicidal effect (criteria of Test Example 1) [1]: 1 (Herbicidal ratio of 5% or higher and lower than 20%); f: beet, effect on crop (criteria of Test Example 1) [2]: 0 (Herbicidal ratio of 5% or lower (almost no effect)); Herbicidal effect grade, R: Veronica persica [3]: 0 (Herbicidal ratio of 5% or lower (almost no effect)); b: directly sowed rice plant, effect on crop (criteria of Test Example 1) [4]: 3 (Herbicidal ratio of 40% or higher and lower than 70%); Herbicidal effect grade, L: Apera spica-venti [5]: 0 (Herbicidal ratio of 5% or lower (almost no effect)); Herbicidal effect grade, N: Amaranthus retroflexus [6]: 0 (Herbicidal ratio of 5% or lower (almost no effect)); Herbicidal effect grade, P: Stellaria media [7]: 0 (Herbicidal ratio of 5% or lower (almost no effect)); O: Chenopodium album, herbicidal effect (criteria of Test Example 1) [13]: 0 (Herbicidal ratio of 5% or lower (almost no effect)); G: Setaria viridis, herbicidal effect (criteria of Test Example 1) [9]: 0 (Herbicidal ratio of 5% or lower (almost no effect)); Herbicidal effect grade, Q: Galium spurium [10]: 0 (Herbicidal ratio of 5% or lower (almost no effect)); Herbicidal effect grade, G: Setaria viridis [11]: 2 (Herbicidal ratio of 20% or higher and lower than 40%) |
